Test results from patent publication US8008071B2 (University of South Florida, priority 1999, dated 2011).
“Also recorded” adds a separate entry of the source.

Legend:
PKCβII mRNA [1] = assay: RT-PCR of PKCβII mRNA in synchronized A10 cells; type: cell-based, rat; details: for effect of glucose analogs on PKCβII mRNA: 25 mM analog; for PERCENT OF PKCβII mRNA POST-GLUCOSE TREATMENT: inhibitor added 30 minutes prior to 25 mM glucose, 5.5 mM glucose control = 100%; for PERCENT OF PKCβII mRNA POST-GLUCOSE TREATMENT / effect of inhibitor on glucose-induced destabilization of PKCβII mRNA: synchronized A10 cells; for effect of inhibitor on glucose-induced destabilization of PKCβII mRNA: 30 minutes pre-incubation, then 25 mM glucose
Experimental: (§1) Reverse Transcriptase-Polymerase Chain Reaction. […] The upstream sense primer corresponded to the C4 kinase domain common to both PKCβI and PKCβII (5′ […] 3′) [SEQ ID NO:4] and the downstream antisense primer was specific for PKCβI (5′ […] 3′) [SEQ ID NO:5] (Chalfant et al., 1995, pp.13326-13332). These primers detect inclusion of the PKCβII exon in the mature mRNA as well as PKCβI mRNA. Sense and antisense primers for β-actin (#5402-3) were obtained from Clonetech. PCR was performed using ampliTaq Gold DNA polymerase from PERKIN ELMER (#N808-0240) on 10% of the reverse transcriptase reaction product. Following 35 cycles of amplification in a BIOMETRA Trioblock thermocycler (PKCβI and -βII: 95° C., 30 sec; 64° C., 2 min for 35 cycles; and for β-actin: 94° C., 1 min; 58° C., 1 min; and 72° C., 3 min for 35 cycles), 25% of the PCR reaction was resolved on a 1.2% agarose gel. Bands were observed under UV light and photographed.
Primers were designed for the upstream common kinase region (C4) (-sense primer) and the PKCβI exon (-antisense primer) for simultaneous amplification of both PKCβI and -βII messages by RT-PCR.

rat VSMC = details: cited from earlier work
PKCβ(I+II) mRNA [2] = assay: In vitro RNA stability assay with post-nuclear extracts of A10 cells; design: species or system rat; details: 50 mM EDTA added to the reaction mix
Experimental: RNA stability assay. To prepare post-nuclear extracts (see, for example, Wager, R. E. and R. K. Assoian. 1990. A phorbol ester-regulated ribonuclease system controlling transforming growth factor BI gene expression in hematopoietic cells. Mol. Cell. Biol. 10:5983-5990), synchronized A1O cells, re-initiated to proliferate with DMEM+10% FBS were treated with either 5.5 mM or 25 mM glucose for 2 h to 24 h, then washed and collected in ice-cold 1× DPBS. The cellular pellet was re-suspended in extract buffer containing 0.01M Tris-HCl, 0.15M NaCl, 0.5% Nonidet P-40, leupeptin (10 μg/ml) and aprotonin (10 μg/ml) incubated on ice for 10 minutes and carefully layered over extract buffer containing 24% sucrose. Samples were centrifuged over a sucrose gradient at 1 0,000xg for 20 minutes at 4° C. Post-nuclear extract was separated, stored on ice and aliquots taken for protein concentration using Bradford protein assay (see Bradford, M. M. 1976. A rapid and sensitive method for the quantitation of microgram quantities of protein utilizing the principle of protein-dye bindingno title. Anal. Biochem. 72:248-254). Total RNA (10 μg) from A10 cells, was incubated with 2.7% (vol/vol) of the post-nuclear extracts for 30 minutes at 4° C. in 50 μl (final volume) of extract buffer. When specifically noted, 50 mM EDTA was added to the reactions as a control to inhibit nuclease activity. […]

PKCβI mRNA [3] = assay: RT-PCR of PKCβI mRNA in synchronized A10 cells; type: cell-based, rat; details: 4 hours
Experimental: as §1
Thus, the PKCβII transcript contains the PKCβI exon with the poly A tail and a common 3′ untranslated region (FIG. 25). Inclusion of the alternatively spliced exon encodes a stop codon such that the PKCβI exon facilitates poly-adenylation but the exon is not translated, thereby generating PKCβII protein. […] Although, this assay is semi-quantitative, the ration of PKCβII to PKCβI mRNA was about 2 to 1.

PP2A = details: cited from earlier work
PP1 = details: cited from earlier work
PP2B = details: cited from earlier work
[4] = test system: IL-3 3′-UTR ARE transcript; details: cited from earlier work
PKCβ promoter = assay: PKCβ promoter-CAT deletion constructs transiently transfected into A10 cells; type: cell-based, rat; details: 100 nM TPA
Experimental: Calcium-phosphate transfections. For promoter studies, A10 cells were grown and synchronized in 6-well plates. Three hours prior to transfections, fresh medium (DMEM containing 10% fetal bovine serum) was substituted on A10 cells. pβG or pβG-PKCβII expression vectors were transfected with the calcium-phosphate-DNA precipitate. Following overnight incubation, calcium phosphate-DNA precipitate was washed off with 1× Dulbecco's phosphate buffered saline (DPBS) and replaced with fresh medium. For stably-transfected cell selection, 0.7 mg/ml G-418 was added to the media. It was changed every 4 days and 10-14 days later, the colonies were pooled and maintained in DMEM (10% FBS) with 0.2 mg/ml G-418.
Since PKCβ is a low copy gene, nuclear run-on assays were not a practical approach to examine transcriptional regulation. […] PKCβ promoter constructs with successive deletions of the 5′ region cloned in front of a promoterless chloramphenicol acetyltransferase (CAT) as the reporter gene were transiently transfected into A10 cells (FIG. 19). pSV-β-Galactosidase was co-transfected with the CAT constructs to normalize the efficiency of transfection. Simultaneous positive and negative controls were carried out as described previously.
Transcriptional repression of PKCβ promoter by transcription factors in response to high glucose was anticipated. […]

glucose-sensing element = assay: Specificity of the glucose-sensing element for hexoses
PKCβ(I+II) mRNA [5] = assay: Northern blot of steady state PKCβ(I+II) mRNA in synchronized A10 cells; type: cell-based, rat; details: 25 mM mannitol osmotic control, 15-18 hours
Experimental: Cell culture. […] Cells were grown to >90% confluency and media was changed every 4 days. Cell synchronization was achieved by serum deprivation (0.5% FBS) for 48 hours (see, for example, Ross, R., C. Nist, B. Kariya, M. J. Rivest, E. Raines, and J. Callis. 1978. Physiological quiescence in plasma-derived serum: Influence of platelet derived growth factor on cell growth in culture. J. Cell. Physiol. 97:497-508).
Isolation of RNA and Northern Blot Analysis. Total cellular RNA was isolated from 100-mm plates using Tri-Reagent (Molecular Research Center, Inc.). […] Ethidium bromide was added in the loading buffer for visualization and quantitation of 18S and 28S RNA. After fractionation, the integrity and loading of RNA was assessed under UV light (23,24). […] Membranes were washed with high stringency conditions (1×SSC, 0.1% SDS for 15 minutes at 42° C. followed by 0.11× SSC, 0.1% SDS for 15 minutes at 42° C.), and quantitated using Molecular Dynamics Phosphoimaging System. In experiments, where mentioned, membranes were exposed to X-ray film and the autoradiograms were quantitated densitometrically.
Cells incubated with 25 mM mannitol were used as osmotic controls. Total RNA was extracted and the mRNA transcript levels were detected using a full length PKCβ cDNA probe which would cross-hybridize with both PKCβI and PKCβII mRNAs. […]

PKCβII mRNA [6] = assay: RT-PCR of PKCβII mRNA in primary human aortic smooth muscle cells (AoSMC); type: cell-based; details: 4 hours; for effect on PKCβII mRNA: 100 nM insulin
Experimental: (§2) Cells were grown to >90% confluency and medium was changed every 5 days.
as §1

PKCβI mRNA [7] = assay: RT-PCR of PKCβI mRNA in primary human aortic smooth muscle cells (AoSMC); type: cell-based; details: 100 nM insulin, 4 hours
Experimental: as §2, §1

O=CC[C@@H](O)[C@H](O)[C@H](O)CO [2-DOG, 2-deoxyglucose]
effect of glucose analogs on PKCβII mRNA (PKCβII mRNA [1]; 4 hours): destabilized

CO[C@@H]([C@H](O)[C@H](O)CO)[C@@H](O)C=O [3-O-Methylglucose, 3-O-methylglucose]
effect of glucose analogs on PKCβII mRNA (PKCβII mRNA [1]; 4 hours): destabilized

N#C/C(=C/c1ccc(O)c(O)c1)C(=O)NCc1ccccc1 [AG-490]
PERCENT OF PKCβII mRNA POST-GLUCOSE TREATMENT (PKCβII mRNA [1]): 5%

CO[C@@H]1[C@H](N(C)C(=O)c2ccccc2)C[C@H]2O[C@]1(C)n1c3ccccc3c3c4c(c5c6ccccc6n2c5c31)C(=O)NC4 [CG 41251]
PERCENT OF PKCβII mRNA POST-GLUCOSE TREATMENT (PKCβII mRNA [1]): 100%

O=C1NC(=O)c2cc(Nc3ccc(F)cc3)c(Nc3ccc(F)cc3)cc21 [CGP53353]
glucose-stimulated rat VSMC proliferation (rat VSMC): inhibits

C[C@@H]1C[C@@H]([C@H](O)CC2CC(=O)NC(=O)C2)C(=O)[C@@H](C)C1 [Cycloheximide]
effect of inhibitor on glucose-induced destabilization of PKCβII mRNA (PKCβII mRNA [1]): did not block
PERCENT OF PKCβII mRNA POST-GLUCOSE TREATMENT (PKCβII mRNA [1]): 10%

O=C(O)CN(CCN(CC(=O)O)CC(=O)O)CC(=O)O [EDTA]
degradation of RNA by post-nuclear extract (PKCβ(I+II) mRNA [2]): No degradation

N[C@H]1C(O)O[C@H](CO)[C@@H](O)[C@@H]1O (stereo partly shown) [Glucosamine]
effect on PKCβII mRNA (PKCβII mRNA [1]; 10 mM glucosamine in the presence of 5.5 mM glucose, 4 hours): did not destabilize; also recorded: did not affect
effect on PKCβI mRNA (PKCβI mRNA [3]; 10 mM glucosamine in the presence of 5.5 mM glucose): did not destabilize; also recorded: did not affect

CO[C@H]1[C@@H](OC)C[C@H](C)[C@@H](OC)C2=CC(=O)C=C(NC(=O)/C(C)=C/C=C\[C@H](OC)[C@@H](OC(N)=O)/C(C)=C/[C@@H]1C)C2=O [Herbimycin A]
effect of inhibitor on glucose-induced destabilization of PKCβII mRNA (PKCβII mRNA [1]): prevented
PERCENT OF PKCβII mRNA POST-GLUCOSE TREATMENT (PKCβII mRNA [1]): 90%

O=c1cc(N2CCOCC2)oc2c(-c3ccccc3)cccc12 [LY 294002]
PERCENT OF PKCβII mRNA POST-GLUCOSE TREATMENT (PKCβII mRNA [1]): 90%

C=C1[C@@H](O)[C@@H]2O[C@]3(CC[C@H](/C=C/[C@@H](C)[C@@H]4CC(C)=C[C@@]5(O[C@H](C[C@@](C)(O)C(=O)O)CC[C@H]5O)O4)O3)CC[C@H]2O[C@@H]1[C@@H](O)C[C@H](C)[C@H]1O[C@@]2(CCCCO2)CC[C@H]1C [Okadaic acid]
effect of inhibitor on glucose-induced destabilization of PKCβII mRNA (PKCβII mRNA [1]): interfered; also recorded: inhibited the destabilization
Ki (PP2A): 0.2 nM
Ki (PP1): 20 nM
Ki (PP2B): less potent inhibitor
effect on mRNA stability in GFP reporter system [4]: mRNA stabilizing compound

COc1cccc(-c2cc(=O)c3ccccc3o2)c1N [PD 98059]
PERCENT OF PKCβII mRNA POST-GLUCOSE TREATMENT (PKCβII mRNA [1]): 5%

CO[C@H]1C[C@@H]2CC[C@@H](C)[C@@](O)(O2)C(=O)C(=O)N2CCCC[C@H]2C(=O)O[C@H]([C@H](C)C[C@@H]2CC[C@@H](O)[C@H](OC)C2)CC(=O)[C@H](C)/C=C(\C)[C@@H](O)[C@@H](OC)C(=O)[C@H](C)C[C@H](C)/C=C/C=C/C=C/1C [Rapamycin]
PERCENT OF PKCβII mRNA POST-GLUCOSE TREATMENT (PKCβII mRNA [1]): 5%

CCCCCCCCCCCCCC(=O)O[C@@H]1[C@@H](C)[C@@]2(O)[C@@H](C=C(CO)C[C@]3(O)C(=O)C(C)=C[C@@H]23)[C@@H]2C(C)(C)[C@]12OC(C)=O [TPA, 12-O-tetradecanoylphorbol-13-acetate]
increase of promoter activity in all constructs (PKCβ promoter): ten-fold

O=C(CO)[C@@H](O)[C@H](O)[C@H](O)CO [fructose]
destabilization of the glucose-sensing element (glucose-sensing element): do not destabilize

OC[C@@H](O)[C@@H](O)[C@H](O)[C@H](O)CO [mannitol]
levels of PKCβII mRNA (PKCβII mRNA [1]; 5.5 mM glucose+19.5 mM mannitol (osmotic control), 4 hours): did not; also recorded: remained unchanged
PKCβ(I+II) mRNA levels (PKCβ(I+II) mRNA [5]): remained unchanged
levels of PKCβI mRNA (PKCβI mRNA [3]; 5.5 mM glucose+19.5 mM mannitol (osmotic control)): remained unchanged
destabilization of the glucose-sensing element (glucose-sensing element): do not destabilize

insulin: hormone that promotes glucose uptake
effect on PKCβII mRNA (PKCβII mRNA [6]): did not significantly affect
effect on PKCβII mRNA (PKCβII mRNA [6]; listed as Insulin): did not destabilize
PKCβII mRNA diminished (PKCβII mRNA [6]; 25 mM glucose+100 nM insulin): 60%
effect on PKCβI mRNA (PKCβI mRNA [7]): did not significantly affect
effect on PKCβI mRNA (PKCβI mRNA [7]; listed as Insulin): did not destabilize
